The values that follow come from patent publication US6482827B1, “Matrix metalloproteinase inhibitors” (Pharmacia & Upjohn S.p.A., priority 1997, dated 2002).

Values after ≈ are worked out from the molar mass of the structure shown.

Data set [1] in a line: Aqueous solubility. The note with it: 25° C.; for solubility: water. The class given is physicochemical.
The target in data set [2] is T1, Human collagenase (MMP-1) (Homo sapiens, UniProt P03956).
T1 sequence (P03956 101-269): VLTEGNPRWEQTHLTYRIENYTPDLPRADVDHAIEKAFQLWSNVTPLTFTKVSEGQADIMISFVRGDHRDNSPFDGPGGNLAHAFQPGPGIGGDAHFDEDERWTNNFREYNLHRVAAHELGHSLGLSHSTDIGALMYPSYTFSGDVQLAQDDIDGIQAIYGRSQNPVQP
Put plainly: Biochemical assay (Protocol A), Ki at steady state, MMP-1. The note with it: preincubation, 37° C., pH=7.4, read-out: Ki at steady state (Ki*) for inhibition of MMP-1. The protocol:
(§1) Human gelatinase-A (MMP-2) was obtained as pro-enzyme (72 kDa) and was activated with 1 mM 4-aminophenylmercuric acetate for 30 min at 37° C. immediately prior to use. Human stromelysin-1-255 (MMP-3) was obtained as a recombinant pro-enzyme isolated from E. coli and activated by heat (1 h, 55° C.).
(§2) The substrate was the commercial quenched-fluorescence peptide Mca-Pro-Leu-Gly-Leu-Dpa-Ala-Arg-NH2, that is (7-methoxycoumarin4-yl)Acetyl-Pro-Leu-Glv-Leu-(3-[2,4-dinitrophenyl]-L-2,3-diamino-propionyl)-Ala-Arg-NH2 (C. G. Knight et al., FEBS Lett.296:263, 1992). The enzymes cleave at the Gly-Leu bond, removing the internally quenching Dpa group. Release of the highly fluorescent peptide Mca-Pro-Leu was followed fluorimetrically at 37° C. using a Perkin Elmer LS-50 Fluorescence Spectrophotometer fitted with a thermostatted four position stirring cell changer. The excitation wavelength was set at 326 nm (bandwidth 5 nm) and the emission at 392 nm (bandwidth 20 nm). Km values of this substrate for the three MMP's is 70 μM or more (Knight et al., reference above). Substrate concentration was 2 μM in the tests, so that we could approximate to unit the term (1+[substrate]/KM) in calculations. The substrate was stable for over 60 minutes in the assay conditions, giving no appreciable increment of fluorescence. Full response was adjusted against 200 nM Mca-Pro-Leu-OH (the released fluorescent peptide) and the instrument was calibrated in the range 0-100 nM Mca-Pro-Leu-OH, corresponding to 0-5% extent of hydrolysis of the 2 μM substrate. The aqueous assay buffer was 50 mM Tris/HCl pH=7.4 containing 0.15 M NaCl, 10 mM CaCl2, 0.01 mM ZnCl2 and 0.05% Brij 35. The concentration of the activated enzyme was determined by titration against representative inhibitors described in the literature and synthesized in house: Roche Ro31-9790 (N. G. Knebel et al., J. Chromatogr. B 673:213, 1995) for MMP-1, and Celltech CT-1418 (compound 1 in S. K. Chander, J. Pharm. Sci. 84:404, 1995) for MMP-2 and MMP-3. Enzyme concentrations in the tests were set at 1.0 nM for MMP-1, 0.04 nM for MMP-2, and 3.0 nM for M-3. Under our assay conditions, we measured keat/KM values of 26900, 669000 and 9740 1/(M×s) for MMP-1, MMP-2 and MMP-3, respectively. All the three enzymes were found stable for over three hours in the assay conditions.
(§3) The inhibition constant for compounds of the present invention was measured at steady state (Ki*; see J. F. Morrison and C. T. Walsh, Adv. Enzymol. Relat. Areas Mol. Biol. 61:201, 1988), upon preincubation experiment, by measuring V0, the initial rate in the absence of inhibitor, and Vs, the steady-state velocity, at different concentrations of inhibitors in the region of their enzyme-inhibitor dissociation constants.
(§4) On a routine basis, 1.94 mL of assay buffer was pre-heated at 37° C. in a vial, 0.02 mL of inhibitor in DMSO (or DMSO only), and 0.02 ml of 100 nM MMP-1 or 4 nM MMP-2 or 300 nM MMP-3 were added, mixed, and the vial was held at 37° C. for 5-180 minutes. Then 0.02 ml of 0.2 mM substrate was added, mixed and transferred into a pre-heated cell. The sample was allowed to equilibrate in the cuvette for 3-5 min at 37° C. against small changes in temperature and changes in the enzyme-inhibitor equilibria related to addition of substrate. After that, the linear increase of fluorescence was monitored over 3-5 min, and the slope (Vo or Vs) was obtained. Inhibitor concentrations were varied to collect data over Vs/Vo ratio ranging from 0.05 to 0.95. The values of Ki* were calculated by nonlinear weighted regression to the tight-binding equation according to Morrison and Walsh above:
(§5) Vs/Vo=[1/(2×Et)]×SQR[(Ki*+It−Et)^2+4×Ki*×Et]−(Ki*+It−Et)
(§6) wherein Et is the total enzyme concentration, and It is the total inhibitor concentration. The following Table I lists Ki* obtained for some representative examples: […]

The target of data set [3] is T2, Human gelatinase-A (MMP-2) (Homo sapiens, UniProt P08253).
T2 sequence (P08253 110-660): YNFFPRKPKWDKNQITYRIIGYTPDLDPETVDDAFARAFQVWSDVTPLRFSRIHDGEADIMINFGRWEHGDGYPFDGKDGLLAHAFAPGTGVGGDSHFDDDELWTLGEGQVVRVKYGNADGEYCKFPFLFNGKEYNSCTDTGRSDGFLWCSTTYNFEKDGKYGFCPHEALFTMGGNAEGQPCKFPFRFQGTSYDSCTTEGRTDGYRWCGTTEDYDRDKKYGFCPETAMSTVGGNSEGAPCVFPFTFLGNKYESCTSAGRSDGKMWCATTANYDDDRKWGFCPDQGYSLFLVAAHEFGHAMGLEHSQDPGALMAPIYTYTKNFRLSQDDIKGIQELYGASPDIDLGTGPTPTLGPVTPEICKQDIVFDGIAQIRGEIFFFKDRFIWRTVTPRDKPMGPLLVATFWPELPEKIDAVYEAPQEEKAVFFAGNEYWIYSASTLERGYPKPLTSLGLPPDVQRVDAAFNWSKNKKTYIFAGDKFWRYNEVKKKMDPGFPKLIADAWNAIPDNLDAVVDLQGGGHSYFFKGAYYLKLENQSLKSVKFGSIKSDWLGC
The experiment in a line: Biochemical assay (Protocol A), Ki at steady state, MMP-2. The following applies: preincubation, 37° C., pH=7.4, read-out: Ki at steady state (Ki*) for inhibition of MMP-2. The protocol:
as §1, §2, §3, §4, §5, §6

For data set [4], the target named is T3, Human stromelysin-1-255 (MMP-3) (Homo sapiens, UniProt P08254).
T3 construct: host or cells: E. coli
Put plainly: Biochemical assay (Protocol A), Ki at steady state, MMP-3. The note with it: preincubation, 37° C., pH=7.4, read-out: Ki at steady state (Ki*) for inhibition of MMP-3. The protocol:
as §1, §2, §3, §4, §5, §6

A short description of data set [5]: PK parameters in rats, iv route. The following applies: rat, in vivo, 10-15 mg/kg. The protocol: As a further example, Table 3 reports clearance and AUC values measured after intravenous administration to rats of a […] of some representative compounds of the present invention.
Data set [6] in a line: PK parameters, oral route, rat. The class given is in vivo. The following applies: plasma, 10-15 mg/kg; for bioavailability: dose-normalised ratio of oral to i.v. mean AUC, read-out: % F (oral bioavailability); for Cmax: read-out: Cmax. The protocol:
As an additional example, Table 4 reports the maximum plasma concentration (Cmax) and oral bioavailability (% F; calculated from dose-normalised ratio of oral to i.v. mean AUC values) after oral administration to rats or cynomolgus monkeys of a […] of some representative compounds of the present invention.

T3 sequence (P08254 100-255 limits assumed): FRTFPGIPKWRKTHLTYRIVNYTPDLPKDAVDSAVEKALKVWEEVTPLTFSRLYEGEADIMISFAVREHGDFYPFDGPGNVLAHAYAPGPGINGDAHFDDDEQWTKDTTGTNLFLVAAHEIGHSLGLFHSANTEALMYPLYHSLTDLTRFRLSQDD

In general, Aqueous solubility refers to the concentration that dissolves in the medium under given conditions. `COc1ccc(CCC[C@@H](C(=O)N2CCOCC2)[C@H](NC(=O)OC(C)(C)C)C(=O)O)cc1` [Example 13, (3S-tert-Butoxycarbonylamino-4-hydroxy-2R-(4-methoxy)phenpropyl)succinyl-morpholinamide] gave an Aqueous solubility in data set [1] (Conditions A) of 6710 µg/mL.
The Ki is the equilibrium dissociation constant of an inhibitor or competing ligand from its target. By AUC is commonly meant the area under the concentration-time curve, a measure of exposure. A low value points to less exposure. As usually defined, the clearance is a measure of how efficiently the substance is removed, as volume per time. A word on the bioavailability: it is dose-corrected exposure relative to a reference, in per cent. What is called Cmax is the highest concentration seen after dosing. For `CC(C)C[C@@H](C(=O)N1CCOCC1)[C@H](N)C(=O)NO` [Example 10, (3S-Amino-4-hydroxyamino-2R-isobutyl)succinyl-morpholinamide], the Ki is 180 nM in data set [2], 340 nM in data set [3] and 2200 nM in data set [4]. Further, the exposure (AUC) in data set [5] is 11100 ng·h/mL. In addition, the clearance in data set [5] stood at 24 mL/min/kg. Moreover, in data set [6], the bioavailability was determined as 28%. In addition, in data set [6], the highest concentration (Cmax) was 2120 ng/mL.
By solubility is commonly meant how much of the substance goes into solution per volume. On to `COc1ccc(CCC[C@@H](C(=O)N2CCCCC2)[C@H](N)C(=O)NO)cc1` [Example 18, (3S-Amino-4-hydroxyamino-2R-(4-methoxy)phenpropyl)succinyl-piperidinamide], for which the values for the Ki in data set [2], in data set [3] and in data set [4] were 850 nM, 79 nM and 860 nM, respectively. This molecule returned a solubility in data set [1] (Conditions B) of over 9600 µg/mL.
On the same counts, the results for `COc1ccc(CCC[C@@H](C(=O)N2CCOCC2)[C@H](N)C(=O)NO)cc1` [Example 16, (3S-Amino-4-hydroxyamino-2R-(4-methoxy)phenpropyl)succinyl-morpholinamide] are 6400 nM, 94 nM, 2400 nM and over 9600 µg/mL.
Consider `COc1ccc(CCC[C@@H](C(=O)N2CCOCC2)[C@@H](C(=O)NO)N(C)C)cc1` [Example 19, (3S-N,N-Dimethylamino-4-hydroxyamino-2R-(4-methoxy)phenpropyl)succinyl-morpholinamide], for which the Ki worked out at 4500 nM in data set [2], 230 nM in data set [3] and 1100 nM in data set [4]. For the same molecule, the concentration in solution in data set [1] (Conditions A) (solubility) came to 7500 µg/mL (≈ 19.1 mM). In addition, the AUC in data set [5] was 9380 ng·h/mL. Also, the clearance in data set [5] was 27 mL/min/kg.
As to `N[C@H](C(=O)NO)[C@@H](CC1CCCC1)C(=O)N1CCCCC1` [Example 22, (3S-Amino-2R-cyclopentylmethyl-4-hydroxyamino)succinyl-piperidinamide], the Ki in data set [2] worked out at 15 nM; in data set [3], 67 nM; in data set [4], 730 nM. This molecule also registered a solubility in data set [1] (Conditions B) of over 8200 µg/mL. For the same molecule, in data set [6], the bioavailability was found to be 62%. Further, the Cmax in data set [6] was 5490 ng/mL.
In turn, `COc1ccc(CCC[C@@H](C(=O)N2CCOCC2)[C@H](N)C(=O)O)cc1` [Example 14, (3S-Amino-4-hydroxy-2R-(4-methoxy)phenpropyl)succinyl-morpholinamide] had an Aqueous solubility in data set [1] (Conditions B) of over 14000 µg/mL.
For the molecule `CC(C)C[C@@H](C(=O)N1CCCCC1)[C@H](N)C(=O)NO` [Example 3, (3S-Amino-4-hydroxyamino-2R-isobutyl)succinyl-piperidinamide], the Ki in data set [2] was 88 nM; in data set [3], 290 nM; in data set [4], 2500 nM. The solubility in data set [1] (Conditions A) is over 9500 µg/mL.
For the molecule `CC(C)C[C@@H](C(=O)N1CCCCC1)[C@@H](C(=O)NO)N(C)C` [Example 5, (3SN,N-Dimethylamino-4-hydroxyamino-2R-isobutyl)succinyl-piperidinamide], the Ki in data set [2] came out at 61 nM; in data set [3] it was 310 nM; in data set [4], 940 nM. Further, in data set [1] (Conditions B), the solubility is over 6000 µg/mL.
As for `COc1ccc(S(=O)(=O)N[C@H](C(=O)NO)[C@@H](CC(C)C)C(=O)N2CCCCC2)cc1` [Example 7, (4-Hydroxyamino-3S-(4-methoxyphenylsulfonyl)amino-2R-isobutyl)succinyl-piperidin-amide], the Ki in data set [2] is 70 nM; in data set [3], 250 nM; in data set [4], 720 nM. The solubility in data set [1] (Conditions A) stood at 4000 µg/mL (≈ 9.06 mM).
On to `CC(C)C[C@@H](C(=O)NC(C1CCCCC1)C1CCCCC1)[C@H](N)C(=O)NO` [Example 24, (3S-Amino-4-hydroxyamino-2R-isobutyl)succinyl-dicyclohexylmethylamide], for which the Ki in data set [2] was found to be 170 nM; in data set [3] it was 400 nM; in data set [4] it was 11000 nM.
`COc1ccc(S(=O)(=O)N[C@H](C(=O)NO)[C@@H](CC2CCCC2)C(=O)N2CCN(Cc3ccc4c(c3)OCO4)CC2)cc1` [Example 37, (2R-Cyclopentylmethyl-4-hydroxyamino-3S-(4-methoxyphenyl)sulfonylamino)succinyl-(4-piperonyl)piperazinamide]: the Ki was found to be 1.8 nM in data set [2], 2.6 nM in data set [3] and 35 nM in data set [4].
As to `CC(C)C[C@@H](C(=O)N1CCCCC1)[C@H](NC(=O)OC(C)(C)C)C(=O)NO` [Example 2, (3S-tert-Butoxycarbonylamino-4-hydroxyamino-2R-isobutyl)succinyl-piperidinamide], the inhibition constant Ki in data set [2] was 1100 nM; in data set [3], 2800 nM; in data set [4], 13000 nM. For the same molecule, the solubility in data set [1] (Conditions A) is over 4500 µg/mL.
`COc1ccc(CCC[C@@H](C(=O)N2CCOCC2)[C@H](NC(=O)OC(C)(C)C)C(=O)NO)cc1` [Example 15, (3S-tert-Butoxycarbonylamino-4-hydroxyamino-2R-(4-methoxy)phenpropyl)succinyl-morpholinamide]: the Ki in data set [2] was determined as 17000 nM; in data set [3], 630 nM; in data set [4], 6500 nM.
